Laboratory results taken from US7319087B2, “Antimicrobial polypeptide from Aspergillus niger” (Novozymes A/S, priority 2001, dated 2008).
No end group written: not given here.

Columns and labels:
[1] = A. giganteus peptide, 51 amino acids; Campos-Olivas et al. (1995); cited from earlier work
A. oryzae BECh2 = experiment: Growth of transformants expressing the polypeptide in tubes with YPM (2% maltose); type: cell-based, Aspergillus oryzae; details: A. oryzae BECh2 transformed with expression plasmid, 6 days, 10 ml YPM (2% maltose)
Source text: (§1) The A. niger anti-microbial polypeptide was inserted in the Aspergillus expression vector pMT2188 to give pMT2446 (i.e., pMT2188 with an insert comprising the A. niger anti-microbial gene): pMT2446 was transformed into A. oryzae BECh2 (disclosed, e.g., on page 26 of WO 00/39322) and into A. niger MBin118. Thirty transformants of each strain were re-isolated twice under selective and non-inducing conditions on Cove minimal plates with sucrose and acetamide. To test expression of the anti-microbial polypeptide, transformants were grown for 6 days in tubes with 10 ml YPM (2% maltose). Supernatants were run on NuPage 10% Bis-Tris SDS gels with MES running buffer to allow separation in the low mw range.

A. niger MBin118 = experiment: as above; type: cell-based, Aspergillus niger; details: A. niger MBin118 transformed with expression plasmid, 6 days, 10 ml YPM (2% maltose)
Source text: as §1

Substance	pl [1]	growth on YPM of host transformants (A. oryzae BECh2)	growth on YPM of host transformants (A. niger MBin118)
A. giganteus peptide: anti-fungal peptide from Aspergillus giganteus (Nakaya et al. 1990), 51 amino acids, four S-S bridges (ATYNGKCYKKDNICKYKAQSGKTAICKCYVKKCPRDGAKCEFDSYKGKCYC; disulfide (positions not given here); not fully specified (bridges); also: four S-S bridges, pairing not given here; UniProt P17737 44-94, looked up)	9.3	–	–
A. giganteus anti-fungal polypeptide (AFP): A. giganteus anti-fungal polypeptide (AFP) disclosed in WO 94/01459 (ATYNGKCYKKDNICKYKAQSGKTAICKCYVKKCPRDGAKCEFDSYKGKCYC; UniProt P17737 44-94, looked up)	–	Growth was inhibited	Growth was inhibited
A. niger anti-microbial polypeptide: 58 amino acid mature polypeptide with anti-microbial activity from Aspergillus niger, SEQ ID NO: 2 (positions 1 to 58), expressed from pMT2446 (MQLTSIAIILFAAMGAIANPIAAEADNLVAREAELSKYGGECSVEHNTCTYLKGGKDH; Aspergillus niger)	–	seemed inhibited	seemed to grow normally
